Marks after values point to notes of the source that are not given here.
Assays:
[1] = system: Otsuka Long-Evans Tokushima Fatty (OLETF) rats; experiment: Liver weight ratio and liver lipid contents in OLETF rats; type: in vivo, rat; conditions: end of six-week experiment, M±SE
Method: Immediately after the extraction of all the blood, the liver was quickly removed from all the rats in each group, and the wet weight of each liver was measured. The liver weight ratio of each rat is shown in terms of the liver weight per unit of body weight (100 g) at the time of removal. Extraction of lipid from each liver was performed in accordance with the method described in “A simple method for the isolation and purification of total lipids from animal tissues” (Folch and two other members, Journal of Biological Chemistry, vol. 226, p 497-509, 1957). A part of the lower layer of the liquid liver extract (the chloroform-containing layer) was separated, and the chloroform contained therein was evaporated under nitrogen gas current. The liquid with the chloroform removed was used as a sample for measuring liver lipid contents. The cholesterol, phospholipid, and triglyceride contents in the liver were enzymatically measured with commercial kits (Cholesterol E-Test Wako, Phospholipid C-Test Wako, and Triglyceride E-Test Wako; products of Wako Pure Chemical Industries, Ltd.), respectively.

[2] = Body weight and food intake of OLETF rats; type: in vivo, rat; conditions: M±SE
From the text: The rats that were the subjects of the experiment were divided into three groups: a Control group to be fed a control diet, a Hercampuri group to be fed a Hercampuri-enriched diet, and an Acarbose group to be fed an Acarbose-enriched diet. […] This control diet was purified animal feed containing casein as the source of protein. The Hercampuri-enriched diet fed to the rats in the Hercampuri group was produced by adding Hercampuri extract powder at a mixing ratio of 2% to the control diet. The Acarbose-enriched diet fed to the rats in the Acarbose group was produced by adding Acarbose (product of Bayer AG) at a mixing ratio of 0.2% to the control diet. For each experimental diet, the amount of the added subject ingredient was compensated for by adjusting the amount of corn starch. Male OLETF rats and LETO rats delivered from Tokushima Research Institute of Otsuka Pharmaceutical Co., Ltd. were used as the subject animals. Each one of these OLETF rats and LETO rats was born during the period of June 10th to June 13th in 2002. […] The rats had free access to feed (CE-2: product of Clea Japan, Inc.) and drinking water (tap water). […] During the experiment, the body weights and the amounts of food intake were measured every other day. […]

[3] = system: Otsuka Long-Evans Tokushima Fatty (OLETF) rats; experiment: Serum apolipoprotein contents in OLETF rats; type: in vivo, rat; conditions: M±SE
Method: The respective contents of various apolipoproteins, i.e. apoA-I, apoB, and apoE, as well as the respective apoE contents in the LDL and HDL fractions, were determined by the rocket immunoelectrophoresis method described in “Age-related changes in serum concentrations of apolipoprotein A-I, E, and A-IV in SHRSP” by Hiroshi Ogawa and 4 other members (G.B., Journal of Hypertension, vol. 4, p 429-453, 1986). The aforementioned immunoelectrophoresis method is in accordance with the Laurell method and adjustment of a part of the method presented by C. B. Laurell in “Quantitative estimation of proteins by electrophoresis in agarose-gel containing antibodies” (USA, Analytical Biochemistry, vol. 15, p 42-52, 1966). The antibodies used for this measurement were specific antibodies obtained from rabbits by using antigens that were various apolipoproteins separated and refined from rat serum. Furthermore, apoB/apoA-I was calculated from the results of measurement of apoA-I and apoB.

[4] = system: Otsuka Long-Evans Tokushima Fatty (OLETF) rats; experiment: Serum glucose, free fatty acids and insulin in OLETF rats; type: in vivo, rat; conditions: end of six-week experiment, M±SE
Method: Six week after the initiation of the experiment, without prior abstinence from feed, each rat was anesthetized by administering approximately 50 mg/kg of pentobarbital sodium (product of Dainippon Pharmaceutical Co., Ltd.) into the abdominal cavity to remove all of its blood via the abdominal aorta with an injection syringe. This operation was performed during the period from 10:00 am to 12:00 am. The blood obtained by the operation was set aside for 1 hour at room temperature and subsequently at 4° C. for a period in the range of 1 to 2 hours. Thereafter, blood serum was separated by means of centrifugation at 2500 rpm at 4° C. for 10 minutes. Furthermore, the glucose and free fatty acid content in he serum were enzymatically measured with commercial kits (Glucose CII-Test Wako and NEFA C-Test Wako; products of Wako Pure Chemical Industries, Ltd.), respectively. The serum insulin content was determined in accordance with the Sandwich ELISA (enzyme-linked immunosorbent assay) method using a Rat insulin ELISA kit (product of Shibayagi Co., Ltd.). Therefore, the insulin content is shown in terms of Immuno-reactive insulin (IRI; pg/ml).

[5] = system: Otsuka Long-Evans Tokushima Fatty (OLETF) rats; experiment: Serum and lipoprotein fraction cholesterol, phospholipid, triglyceride in OLETF rats; type: in vivo, rat; conditions: end of six-week experiment, M±SE
Method: Six week after the initiation of the experiment, without prior abstinence from feed, each rat was anesthetized by administering approximately 50 mg/kg of pentobarbital sodium (product of Dainippon Pharmaceutical Co., Ltd.) into the abdominal cavity to remove all of its blood via the abdominal aorta with an injection syringe. This operation was performed during the period from 10:00 am to 12:00 am. The blood obtained by the operation was set aside for 1 hour at room temperature and subsequently at 4° C. for a period in the range of 1 to 2 hours. Thereafter, blood serum was separated by means of centrifugation at 2500 rpm at 4° C. for 10 minutes. Fractions of various lipoproteins were separated from the blood serum obtained at the time of whole blood extraction. […] Therefore, it is not possible with step-wise density gradient ultracentrifugation employed for this experiment to exclusively separate native LDL, and the LDL fraction separated in this stage contains HDL1 that existed together with LDL. The cholesterol, phospholipid, and triglyceride contents in the serum and each lipoprotein fraction were enzymatically measured with commercial kits (Cholesterol E-Test Wako, Phospholipid C-Test Wako, and Triglyceride E-Test Wako; products of Wako Pure Chemical Industries, Ltd.), respectively.

[6] = system: cholesterol 7α-hydroxylase; experiment: 7α-hydroxylase activity in liver microsome fraction of OLETF rats; type: in vivo, rat; conditions: M±SE
Method: Purified liver microsome fraction was produced according to a normal method, and the cholesterol in the liver microsome fraction was used as the substrate. The activity of cholesterol 7α-hydroxylase was determined by HPLC in accordance with the method described in “An improved method for assay of cholesterol 7α-hydroxylase activity” by Tadashi Ogishima and one other member (USA, Analytical Biochemistry, vol. 158, p 228-232, 1986). The results of measurement of 7α-hydroxylase activity are shown in terms of the amount of HCO (7α-hydroxy-4-cholesten-3-on) generated per 1 mg of protein content in one minute in the microsome fraction (pmol/min/mg of microsome protein).

[7] = system: streptozotocin (STZ)-induced diabetic rats; conditions: Planta Medica 1994, 1995; cited from earlier work

SMILES	Liver Cholesterol [1]	Liver Phospholipid [1]	Liver Triglyceride [1]	Liver weight [1]	Food intake ([2]; average over six weeks)	Body weight ([2]; end of six-week experiment)	ApoB/apoA-I (×100) ([3]; calculated from apoA-I and apoB)	Serum apoA-I ([3]; end of six-week experiment)	Serum apoB ([3]; end of six-week experiment)	Serum apoE ([3]; end of six-week experiment)	Serum FFA [4]	Serum Glucose [4]	Serum IRI (immuno-reactive insulin) [4]	Serum Cholesterol [5]	Serum Phospholipid [5]	Serum Triglyceride [5]	7α-hydroxylase [6]	Blood sugar levels [7]
C[C@H]1O[C@H](O[C@H]2[C@H](O)[C@@H](O)[C@@H](O[C@H]3[C@H](O)[C@@H](O)C(O)O[C@@H]3CO)O[C@@H]2CO)[C@H](O)[C@@H](O)[C@@H]1N[C@H]1C=C(CO)[C@@H](O)[C@H](O)[C@H]1O (stereo partly drawn) [Acarbose]	5.39 mg/wet g	32.9 mg/wet g	75.4 mg/wet g	3.40 g/100 g B.W.	12.9 ± 0.9^a g/rat/day	639 ± 14^b g	3.15 ± 0.06^c	126 ± 4^a mg/dL	3.95 ± 0.14^b mg/dL	55.5 ± 2.7^b mg/dL	751 ± 38^c μEq/L	193 ± 12^c mg/dL	665 ± 231^b pg/mL	150 ± 11^b mg/dL	178 ± 10^b mg/dL	55.6 ± 1.7^c mg/dL	34.5 nmol/min/mg protein	
COc1cc(O)c2c(=O)c3c(O)ccc(O)c3oc2c1 [Bellidifolin]																		has a function of reducing blood sugar levels
